# Measured values reported in patent publication US6627246B2, “Process for coating stents and other medical devices using super-critical carbon dioxide” (Ortho-McNeil Pharmaceutical, Inc., priority 2000, dated 2003).
# Tests used:
# [1] = In-vitro release study of RWJ-53308 from PLGA coated stent; format: physicochemical; conditions: from PLGA coated stent in 2 mL water
# Experimental: A coated stent obtained in step b was placed in a tube with 2 mL of water. A 1 mL. aliquot was taken at the 1 hr and at the 17.5 hour time point. This 1 mL. aliquot was replaced with fresh water at each sampling. The sampled aliquot was analyzed by reading UV absorbance at 261 nm. The drug concentration was calculated by comparing the absorbance of a standard solution containing 147 μg/mL aqueous solution of RWJ-53308.
# It was observed that approx. 66 ug of RWJ-53308 was released at 1 hour and a cumulative amount of approx. 134 ug was released at 17.5 hours as shown in FIG. 1.
# [2] = Determination of RWJ-53308 on the PLGA coated stent (24 h water maceration, UV 261 nm); format: physicochemical; conditions: macerated 24 hours in 2 mL water, UV absorbance 261 nm
# Experimental: A coated stent obtained in step b above was placed in a tube with 2 mL. water. The coated stent was allowed to macerate for 24 hours. The aqueous supernatant was drained, filtered and UV absorbance was read at 261 nm. The amount of RWJ-53308 on the stent was calculated by comparing the absorbance value of a standard solution containing 147 μg/mL solution of RWJ-53308. Thus the supernatant obtained by extracting the drug from the PLGA coated stent contained 105 μg of RWJ-53308.
smiles,measurement,setting,value
"O=C(O)C[C@H](NC(=O)[C@@H]1CCCN(C(=O)CCC2CCNCC2)C1)c1cccnc1 [RWJ-53308, 3-Pyridinepropanoic acid, b-[[[(3R)-1-[1-oxo-3-(4-piperidinyl)propyl]-3-piperidinyl]carbonyl]amino]-, (bS)-(9CI)]",amount of RWJ-53308 released,[1]; at 1 hour,approx. 66 ug
same,cumulative amount of RWJ-53308 released,[1]; at 17.5 hours,approx. 134 ug
same,amount of RWJ-53308 in supernatant extracted from PLGA coated stent,[2],105 µg
